Results published in US9126973B2, “Multiheteroaryl compounds as inhibitors of H-PGDS and their use for treating prostaglandin D2 mediated diseases” (Cayman Chemical Company, Incorporated, priority 2008, dated 2015).

How the values were obtained:
[1] = target: T1, H-PGDS (Homo sapiens (Human), UniProt O60760); assay: H-PGDS Inhibitor Enzyme Immunoassay (EIA); assay type: biochemical; conditions: 25 ng H-PGDS, 40 μM PGH2, 1 mM GSH; PGD2 quantified by EIA
Experimental: H-PGDS Inhibitor Enzyme Immunoassay
The assay detects and measures PGD2 generated by H-PGDS. The prostanoid product is quantified via enzyme immunoassay (EIA) using a specific PGD2 antibody.
The assay is carried out by the following steps: • 1. Inhibitor screening is performed in 100 mM Tris-HCl, pH 8.0 containing 1 mM GSH, 1 mM MgCl2, 4% inhibitor/DMSO, 40 μM PGH2 and 25 ng of PGDS in a total volume of 125 μL. • 2. A reaction mixture containing 100 mM Tris-HCl, pH 8.0, 1 mM GSH, 1 mM MgCl2, 25 ng H-PGDS and 4% inhibitor or DMSO (uninhibited reaction) is preincubated at 25° C. for 10 minutes. • 3. Reactions are initiated using 5 μL of PGH2 and quenched every 15 seconds for one minute. Reactions are quenched by taking 10 μL of reaction mixture and adding to 490 μL of 100 mM phosphate buffer containing 0.1% BSA, 400 mM NaCl, 1 mM EDTA, 20 mM FeCl2, 10% 1N HCl, and 0.01% azide to prevent the non-enzymatic formation of PGD2 from PGH2. The FeCl2 serves the purpose of reducing PGH2 to 12-HHT. (Quench buffer is kept on ice at all times). • 4. Quenched samples (5 μL) are further diluted 100 fold in 495 μL of 100 mM phosphate buffer containing 0.1% BSA, 400 mM NaCl, 1 mM EDTA, and 0.01% azide for the PGD2 EIA assay. (Dilution buffers are kept on ice at all times).
The final 5000 fold diluted samples are analyzed following the protocol outlined in Cayman Chemical's commercially available PGD2 EIA kit (Cat. #512021). 50 μL of diluted sample is analyzed at least in duplicate in the EIA assay and the amount of PGD2 formed is quantified using a standard curve.

[2] = target: T1, H-PGDS; assay: H-PGDS Fluorescence Polarization Binding Assay (FPBA); conditions: H-PGDS-MBP fusion enzyme, fluorescent probe, reduced glutathione 5 mM, 60-90 minutes at room temperature, 96-well format
Experimental: H-PGDS Fluorescence Polarization Binding Assay This assay essentially is available from Cayman Chemical Company as Catalog item #600007. The test data reported for the aforementioned Examples (H-PGDS FPBA IC50) were generated using a 96-well, instead of the 384-well, format. […] Assays were performed in 96-well microtiter plates in 100 μL of total sample volume. Excitation and emission wavelengths appropriate for the employed detection analyte were used. […] Twelve clean microfuge tubes were labeled A1 through A12. […] Dimethyl sulfoxide (50 μL) was added to each of tubes A1 through A11. The HQL-79 control solution was serially diluted by removing 50 μL from tube A12 and placing it in tube A11 with subsequent thorough mixing of the contents of tube A11. Next, 50 μL was removed from tube A11 and was placed into tube A10 with subsequent thorough mixing of the contents of tube A10. This process was repeated for tubes A9 through A2. […] A test compound may be dissolved in DMSO, ethanol, or methanol at several concentrations when the titration endpoint is unknown. […] Assay cocktail (95 μL) was added to each plate well. DMSO (5 μL) from microfuge tube A1 was added to each plate well A1 and B1. Positive control solution (5 μL) from microfuge tube A2 was added to each plate well A2 and B2. Positive control solution (5 μL) from microfuge tube A3 was added to each plate well A3 and B3. This procedure was continued until all the positive control standard dilutions were aliquoted. Test compound solutions (5 μL) were added to the wells. […] The IC50 for a particular test compound was obtained by performing a full concentration titration versus a full concentration titration of positive control. Comparison of a single concentration of a test compound to the maximum binding well provided an assessment of the relative affinity of the test compound for H-PGDS-MBP. The plate was covered and incubated for 60-90 minutes at room temperature. The FP signal is stable for at least two hours. […] The measurements were taken in the fluorescent polarization mode with the z-height set to the middle of the well and the G-factor set to 1.13 on a Tecan Safire 2 reader.

[3] = background statement with literature references; cited from earlier work

T1 sequence (O60760 whole entry): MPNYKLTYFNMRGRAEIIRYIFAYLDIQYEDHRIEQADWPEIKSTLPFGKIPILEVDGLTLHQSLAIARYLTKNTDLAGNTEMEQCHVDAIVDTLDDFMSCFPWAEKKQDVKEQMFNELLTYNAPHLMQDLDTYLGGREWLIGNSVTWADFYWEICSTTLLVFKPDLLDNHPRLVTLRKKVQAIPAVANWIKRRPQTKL

Row | Compound | IC50 [1] | melting point | IC50 [2] | antiallergic and antiasthmatic activity in vivo [3]
1 | c1ccc(CN2CCC(c3ncc(-c4cnc(-c5ccccc5)nc4)[nH]3)CC2)cc1 [Example 19, 5-(2-(1-benzylpiperidin-4-yl)-1H-imidazol-5-yl)-2-phenylpyrimidine] | 6 nM | 223 °C | 80 nM | –
2 | c1ccc(Oc2ncc(-c3cnc(-c4cccnc4)[nH]3)cn2)cc1 [Example 40, 2-phenoxy-5-(2-(pyridin-3-yl)-1H-imidazol-4-yl)pyrimidine] | 370 nM | 236 °C | 625 nM | –
3 | c1ccc(-c2ncc(-c3nnc(-c4ccccc4)[nH]3)cn2)cc1 [Example 49, 2-phenyl-5-(5-phenyl-4H-1,2,4-triazol-3-yl)pyrimidine] | 84 nM | 280 to 282 °C | 1000 nM | –
4 | c1ccc(-c2ncc(-c3csc(-c4cccnc4)n3)cn2)cc1 [Example 59, 4-(2-phenylpyrimidin-5-yl)-2-(pyridin-3-yl)thiazole] | 150 nM | 319 °C | 1000 nM | –
5 | c1ccc(C(OC2CCN(CCCc3nnn[nH]3)CC2)c2ccccc2)cc1 [HQL-79] | – | – | – | antiallergic and antiasthmatic activity in vivo
